Measured values taken from the supplement of paper PMC8558673.

Test system: Escherichia coli K12 ER1821
Experiment: log10 surviving fraction N/N0 (CFU/mL relative to untreated control) (log_unit); higher = more bacterial survival (less inactivation)
Method: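 E. coli K12 ER1821 (mid-exponential, washed in 250 mM sucrose) was exposed to antibiotic at MIC, 3x, 10x or 30x MIC, given a single 1-ms pulse of 0-20 kV/cm, and incubated with the antibiotic at room temperature for <=1 min, 60 min, 160 min or 24 h before dilution. Survivors were counted as CFU by drop plating after overnight growth at 37 C; the value is log10(N/N0) relative to the untreated control (no antibiotic, no pulse), with 3 replicates on different days.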

CN(C)[C@@H]1C(O)=C(C(N)=O)C(=O)[C@@]2(O)C(O)=C3C(=O)c4c(O)cccc4[C@@](C)(O)[C@H]3C[C@@H]12 [tetracycline]
log10 surviving fraction N/N0
Conditions	antibiotic concentration 2 ug/mL	antibiotic concentration 6 ug/mL	antibiotic concentration 20 ug/mL	antibiotic concentration 60 ug/mL
electric pulse amplitude (kV/cm, single 1-ms pulse): 0, post-pulse incubation time: 24 h	-0.417	-0.475	-0.573	-1.45
electric pulse amplitude (kV/cm, single 1-ms pulse): 0, post-pulse incubation time: 60 min	-0.108	-0.125	-0.116	-0.361
electric pulse amplitude (kV/cm, single 1-ms pulse): 0, post-pulse incubation time: 160 min	-0.0521	-0.172	-0.241	-0.461
electric pulse amplitude (kV/cm, single 1-ms pulse): 0, post-pulse incubation time: <=1 min	-0.0586	-0.2	-0.136	-0.26
electric pulse amplitude (kV/cm, single 1-ms pulse): 5, post-pulse incubation time: 24 h	-0.436	-0.518	-0.877	-2.42
electric pulse amplitude (kV/cm, single 1-ms pulse): 5, post-pulse incubation time: 60 min	-0.307	-0.307	-0.303	-0.636
electric pulse amplitude (kV/cm, single 1-ms pulse): 5, post-pulse incubation time: 160 min	-0.235	-0.282	-0.345	-0.84
electric pulse amplitude (kV/cm, single 1-ms pulse): 5, post-pulse incubation time: <=1 min	-0.0914	-0.264	-0.276	-0.618
electric pulse amplitude (kV/cm, single 1-ms pulse): 10, post-pulse incubation time: 24 h	-0.65	-0.762	-1.8	-3.46
electric pulse amplitude (kV/cm, single 1-ms pulse): 10, post-pulse incubation time: 60 min	-0.769	-0.825	-1.02	-1.72
electric pulse amplitude (kV/cm, single 1-ms pulse): 10, post-pulse incubation time: 160 min	-0.827	-0.925	-1.11	-2.1
electric pulse amplitude (kV/cm, single 1-ms pulse): 10, post-pulse incubation time: <=1 min	-0.389	-0.48	-0.656	-1.39
electric pulse amplitude (kV/cm, single 1-ms pulse): 15, post-pulse incubation time: 24 h	-1	-1.48	-2.97	-4.05
electric pulse amplitude (kV/cm, single 1-ms pulse): 15, post-pulse incubation time: 60 min	-1.45	-1.53	-1.82	-2.48
electric pulse amplitude (kV/cm, single 1-ms pulse): 15, post-pulse incubation time: 160 min	-1.46	-1.63	-1.99	-2.74
electric pulse amplitude (kV/cm, single 1-ms pulse): 15, post-pulse incubation time: <=1 min	-0.764	-0.971	-1.23	-2.06
electric pulse amplitude (kV/cm, single 1-ms pulse): 20, post-pulse incubation time: 24 h	-1.49	-1.98	-3.9	-4.78
electric pulse amplitude (kV/cm, single 1-ms pulse): 20, post-pulse incubation time: 60 min	-1.99	-2.02	-2.25	-3.13
electric pulse amplitude (kV/cm, single 1-ms pulse): 20, post-pulse incubation time: 160 min	-1.97	-2.19	-2.44	-3.57
electric pulse amplitude (kV/cm, single 1-ms pulse): 20, post-pulse incubation time: <=1 min	-1.26	-1.3	-1.57	-2.34

CC1(C)S[C@@H]2[C@H](NC(=O)[C@H](N)c3ccccc3)C(=O)N2[C@H]1C(=O)O [ampicillin]
log10 surviving fraction N/N0
Conditions	antibiotic concentration 30 ug/mL	antibiotic concentration 90 ug/mL	antibiotic concentration 300 ug/mL	antibiotic concentration 900 ug/mL
electric pulse amplitude (kV/cm, single 1-ms pulse): 0, post-pulse incubation time: 24 h	-0.726	-1.73	-2.56	-2.68
electric pulse amplitude (kV/cm, single 1-ms pulse): 0, post-pulse incubation time: 60 min	-0.0801	-0.135	-1.02	-1.65
electric pulse amplitude (kV/cm, single 1-ms pulse): 0, post-pulse incubation time: 160 min	-0.551	-1.08	-1.68	-2.17
electric pulse amplitude (kV/cm, single 1-ms pulse): 0, post-pulse incubation time: <=1 min	-0.0839	-0.253	-0.17	-0.995
electric pulse amplitude (kV/cm, single 1-ms pulse): 5, post-pulse incubation time: 24 h	-1.01	-1.77	-2.86	-3.4
electric pulse amplitude (kV/cm, single 1-ms pulse): 5, post-pulse incubation time: 60 min	-0.411	-0.494	-1.56	-2.27
electric pulse amplitude (kV/cm, single 1-ms pulse): 5, post-pulse incubation time: 160 min	-0.803	-1.47	-2.27	-2.86
electric pulse amplitude (kV/cm, single 1-ms pulse): 5, post-pulse incubation time: <=1 min	-0.112	-0.305	-0.412	-1.08
electric pulse amplitude (kV/cm, single 1-ms pulse): 10, post-pulse incubation time: 24 h	-1.62	-2.91	-4.063	-4.5
electric pulse amplitude (kV/cm, single 1-ms pulse): 10, post-pulse incubation time: 60 min	-1.07	-1.59	-2.43	-2.817
electric pulse amplitude (kV/cm, single 1-ms pulse): 10, post-pulse incubation time: 160 min	-1.64	-2.22	-2.96	-3.31
electric pulse amplitude (kV/cm, single 1-ms pulse): 10, post-pulse incubation time: <=1 min	-0.474	-0.722	-1.11	-1.27
electric pulse amplitude (kV/cm, single 1-ms pulse): 15, post-pulse incubation time: 24 h	-2.66	-3.79	-4.45	-4.93
electric pulse amplitude (kV/cm, single 1-ms pulse): 15, post-pulse incubation time: 60 min	-1.88	-2.12	-2.9	-3.28
electric pulse amplitude (kV/cm, single 1-ms pulse): 15, post-pulse incubation time: 160 min	-2.2	-2.74	-3.3	-3.8
electric pulse amplitude (kV/cm, single 1-ms pulse): 15, post-pulse incubation time: <=1 min	-1.1	-1.29	-1.34	-1.99
electric pulse amplitude (kV/cm, single 1-ms pulse): 20, post-pulse incubation time: 24 h	-3.57	-4.39	-4.6	-4.96
electric pulse amplitude (kV/cm, single 1-ms pulse): 20, post-pulse incubation time: 60 min	-2.46	-2.71	-3.42	-3.64
electric pulse amplitude (kV/cm, single 1-ms pulse): 20, post-pulse incubation time: 160 min	-2.65	-3.23	-3.77	-4.02
electric pulse amplitude (kV/cm, single 1-ms pulse): 20, post-pulse incubation time: <=1 min	-1.34	-1.45	-1.85	-2.58

O=C(O)c1cn(C2CC2)c2cc(N3CCNCC3)c(F)cc2c1=O [ciprofloxacin]
log10 surviving fraction N/N0
Conditions	antibiotic concentration 0.025 ug/mL	antibiotic concentration 0.075 ug/mL	antibiotic concentration 0.25 ug/mL	antibiotic concentration 0.75 ug/mL
electric pulse amplitude (kV/cm, single 1-ms pulse): 0, post-pulse incubation time: 24 h	-1.23	-2.32	-3.37	-2.76
electric pulse amplitude (kV/cm, single 1-ms pulse): 0, post-pulse incubation time: 60 min	-0.187	-0.389	-1.04	-1.39
electric pulse amplitude (kV/cm, single 1-ms pulse): 0, post-pulse incubation time: 160 min	-0.358	-0.825	-1.78	-2.04
electric pulse amplitude (kV/cm, single 1-ms pulse): 0, post-pulse incubation time: <=1 min	-0.0971	-0.218	-0.361	-0.897
electric pulse amplitude (kV/cm, single 1-ms pulse): 5, post-pulse incubation time: 24 h	-1.2	-2.36	-3.46	-2.88
electric pulse amplitude (kV/cm, single 1-ms pulse): 5, post-pulse incubation time: 60 min	-0.336	-0.615	-1.11	-1.47
electric pulse amplitude (kV/cm, single 1-ms pulse): 5, post-pulse incubation time: 160 min	-0.532	-0.993	-1.87	-2.11
electric pulse amplitude (kV/cm, single 1-ms pulse): 5, post-pulse incubation time: <=1 min	-0.217	-0.161	-0.535	-1.04
electric pulse amplitude (kV/cm, single 1-ms pulse): 10, post-pulse incubation time: 24 h	-1.78	-2.97	-3.49	-3.36
electric pulse amplitude (kV/cm, single 1-ms pulse): 10, post-pulse incubation time: 60 min	-0.593	-1.29	-1.69	-2.16
electric pulse amplitude (kV/cm, single 1-ms pulse): 10, post-pulse incubation time: 160 min	-1.04	-1.73	-2.52	-2.86
electric pulse amplitude (kV/cm, single 1-ms pulse): 10, post-pulse incubation time: <=1 min	-0.507	-0.67	-0.989	-1.83
electric pulse amplitude (kV/cm, single 1-ms pulse): 15, post-pulse incubation time: 24 h	-2.35	-3.37	-3.85	-4.09
electric pulse amplitude (kV/cm, single 1-ms pulse): 15, post-pulse incubation time: 60 min	-1.41	-1.81	-2.34	-2.77
electric pulse amplitude (kV/cm, single 1-ms pulse): 15, post-pulse incubation time: 160 min	-1.62	-2.31	-3.12	-3.27
electric pulse amplitude (kV/cm, single 1-ms pulse): 15, post-pulse incubation time: <=1 min	-1.25	-1.2	-1.55	-2.28
electric pulse amplitude (kV/cm, single 1-ms pulse): 20, post-pulse incubation time: 24 h	-3.05	-3.76	-4.37	-4.6
electric pulse amplitude (kV/cm, single 1-ms pulse): 20, post-pulse incubation time: 60 min	-1.77	-2.25	-2.75	-3.05
electric pulse amplitude (kV/cm, single 1-ms pulse): 20, post-pulse incubation time: 160 min	-1.92	-2.73	-3.31	-3.37
electric pulse amplitude (kV/cm, single 1-ms pulse): 20, post-pulse incubation time: <=1 min	-1.65	-1.77	-2.05	-2.91
